Values quoted from earlier work as cited in article PMC3437650 (Bioorganic & medicinal chemistry letters, 2008).

Tested on: BBB choline transporter
Conditions: ref 11b

In the case of “N,N’-(1,12-dodecandiyl)-bis-pyridinium dibromide [bPiDDB]”, the “share of permeation into brain that uses the BBB choline transporter” value is listed as ~ 90%.
